Assay results as given in patent US20210238138A1, “Method for improving nucleation of crystals from solution” (Université Libre de Bruxelles, priority 2018, published 2021).

Assay: Transient time and distance of aspirin solution in tubing
Type: physicochemical
Conditions: 200 mg/mL in ethanol/water 50/50 vol %, start 60° C., water bath 10° C.; for Transient distance: flow rate 30 mL/min
Text: Two different capillaries of dimensions 1000 and 1500 μm inner diameter ID were used for a test using the setup of FIG. 1 in which the evolution of temperature inside the tubing was experimentally investigated at different distances.
The transition time is defined as the time necessary to reach crystallization conditions in the used setup (i.e. time for a fluid particle flowing in the liquid to get from undersaturated conditions to nucleation conditions). Therefore, this time is at a given concentration dominated by the difference in temperature between the solubility temperature and the metastable zone width or MSZW. At temperatures below this MSZW the solute in solution starts to nucleate spontaneously. […] (both measured). The transition time is then defined as the time needed to overcome this 20° C. difference in temperature.
As a consequence, for a 1500 μm inner diameter tubing, the total tubing length necessary to conduct crystallization is a multitude of the corresponding transient distance, making any workable application impossible: about 3.5 m are necessary to overcome the solubility time; 3.5 m to reach transient distance and approximately the 4 times the transient distance is necessary to increase sufficiently the induction time. The transient distance is defined as the distance the liquid is transferred during the transient time at a given flow rate.

Transient time (tubing 1000 μm): 1 000 ms
Transient distance (tubing 1000 μm): 1.3 m
Transient time (tubing 1500 μm): 5 700 ms
Transient distance (tubing 1500 μm): 3.5 m
Structure (SMILES): CC(=O)Oc1ccccc1C(=O)O [Acetylsalicylic acid, acetylsalicylic acid]
